Laboratory results: patent publication US10807969B2, “Meglumine salt formulations of 1-(5,6-dichloro-1h-benzo[d]imidazol-2-yl)-1h-pyrazole-4-carboxylic acid” (Janssen Pharmaceutica NV, priority 2011, dated 2020)

Assay: Moisture uptake (adsorption/desorption vs relative humidity)
Type: physicochemical
Conditions: for Desorption (90-0% RH): moisture loss; for Adsorption (40-90% RH): moisture uptake
Excerpt: The thermal properties, crystalline nature, apparent purity and moisture uptake of a 6.0 g batch of the free acid of compound (1) are summarized in Table 1.
Two broad endothermic peaks of the potassium salt of compound (1) were seen by DSC that can be associated with a dehydration event and melt/decomposition, respectively (Table 2).

| Compound | Desorption (90-0% RH) [%] | Adsorption (40-90% RH) | Hygroscopicity (salt prepared by re-slurry methodology) |
| --- | --- | --- | --- |
| O=C(O)c1cnn(-c2nc3cc(Cl)c(Cl)cc3[nH]2)c1 [free acid of compound (1), 1-(5,6-Dichloro-1H-benzoimidazol-2-yl)-1H-pyrazole-4-carboxylic acid] | −0.96 | +0.59% |  |
| O=C([O-])c1cnn(-c2nc3cc(Cl)c(Cl)cc3[nH]2)c1.[K+] [potassium salt of compound (1), potassium salt of 1-(5,6-dichloro-1H-benzoimidazol-2-yl)-1H-pyrazole-4-carboxylic acid] | −0.89 | +0.53% | non-hygroscopic |
